According to ChEMBL document CHEMBL1201862, “PubChem BioAssay data set” (2004):
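All cell lines were grown in 96-well plates and treated with compound for 48 hours. GI50: concentration for 50% inhibition of growth.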 The source made the active and inactive calls. Cut-off read from the data, not from the text of the source: active = GI50 up to about 1.1 µM and inactive = higher.

Legend:
Experiment in all cases: growth of human tumour cells (NCI), 48 h
COLO 205 = system: COLO 205
SK-OV-3 = system: SK-OV-3
U-251 = system: U-251
SNB-75 = system: SNB-75
UACC-257 = system: UACC-257
EKVX = system: EKVX
LOX IMVI = system: LOX IMVI
MCF7 = system: MCF7
SNB-19 = system: SNB-19
CAKI-1 = system: CAKI-1
MOLT-4 = system: MOLT-4
NCI/ADR-RES = system: NCI/ADR-RES
OVCAR-8 = system: OVCAR-8
SF-539 = system: SF-539
ACHN = system: ACHN
SR = system: SR
TK-10 = system: TK-10
M14 = system: M14
RXF 631 = system: RXF 631
LXFL 529 = system: LXFL 529

Measured: GI50

O=C(O)CCC(NC(=O)c1ccc(Nc2nc3ccc(C(F)(F)F)cc3nc2-c2ccccc2)cc1)C(=O)O (stereo not drawn)
inactive: COLO 205 > 100 µM | SK-OV-3 > 100 µM | U-251 > 83 µM | SNB-75 > 100 µM | UACC-257 > 100 µM | EKVX > 100 µM | LOX IMVI > 100 µM | MCF7 > 100 µM | SNB-19 > 100 µM | CAKI-1 > 57.8 µM | MOLT-4 > 100 µM | NCI/ADR-RES > 100 µM | OVCAR-8 > 100 µM | SF-539 > 100 µM

C=CCCC1(C)CCCNC1=S (stereo not drawn)
inactive: COLO 205 37.7 µM | SK-OV-3 > 100 µM | ACHN > 100 µM | U-251 > 100 µM | SNB-75 > 100 µM | SR > 100 µM | TK-10 > 100 µM | UACC-257 > 100 µM | EKVX > 100 µM | LOX IMVI > 100 µM | SNB-19 > 100 µM | M14 > 100 µM | MOLT-4 > 100 µM | OVCAR-8 > 100 µM | SF-539 > 100 µM

CCC12CCC[C@@]13C=C[C@H](O3)C(C)(C)C2=O (stereo partly drawn)
inactive: SK-OV-3 > 100 µM | ACHN > 100 µM | U-251 > 100 µM | SNB-75 > 100 µM | SR > 100 µM | TK-10 > 100 µM | UACC-257 > 100 µM | EKVX > 100 µM | LOX IMVI > 100 µM | RXF 631 > 100 µM | SNB-19 > 100 µM | CAKI-1 > 100 µM | M14 > 100 µM | MOLT-4 > 100 µM | LXFL 529 > 100 µM | OVCAR-8 > 100 µM | SF-539 > 100 µM

CN(C)CCNCc1c2ccccc2c(CNCCN(C)C)c2ccccc12
inactive: COLO 205 9.53 µM | SK-OV-3 16.9 µM | U-251 20.9 µM | SNB-75 43.6 µM | UACC-257 18 µM | EKVX 65.8 µM | LOX IMVI 18.1 µM | MCF7 26 µM | MOLT-4 2.2 µM | NCI/ADR-RES > 100 µM | OVCAR-8 31.6 µM | SF-539 28.2 µM
